The values below come from paper PMC5705267 (Synapse (New York, N.Y.), 2017).

The experiment has as its target GHSR1a (growth hormone secretagogue receptor 1a, ghrelin receptor) (Homo sapiens, UniProt Q92847). The experiment can be described thus: aequorin Ca2+ mobilization, antagonism of L-692, […] in HEK293 cells. Format: cell-based.

Molecules are shown by their SMILES.

Sequence of GHSR1a (growth hormone secretagogue receptor 1a, ghrelin receptor) (Q92847 whole entry): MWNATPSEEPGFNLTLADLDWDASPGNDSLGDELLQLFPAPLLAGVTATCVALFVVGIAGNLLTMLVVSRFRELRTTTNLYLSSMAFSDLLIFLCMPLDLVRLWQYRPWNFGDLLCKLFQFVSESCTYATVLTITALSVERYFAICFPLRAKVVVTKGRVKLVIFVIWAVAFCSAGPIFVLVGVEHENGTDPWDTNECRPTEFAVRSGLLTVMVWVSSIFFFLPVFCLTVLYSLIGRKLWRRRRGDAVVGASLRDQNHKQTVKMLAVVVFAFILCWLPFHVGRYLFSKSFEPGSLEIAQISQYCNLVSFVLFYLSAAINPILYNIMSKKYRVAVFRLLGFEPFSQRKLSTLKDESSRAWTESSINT

On to `Cc1nc2ccc(Oc3ccc(F)cc3)cc2c(=O)n1C[C@H]1CCCN(C(C)C)C1` [YIL781], for which the midpoint of inhibition, the IC50, lay at 185 nM.
